Measured values: patent US9198918B2, “Benzoxazepin PI3K inhibitor compounds and methods of use” (Genentech, Inc., priority 2009, dated 2015)
Blank lines part the entries; values can stand above or below the compound they belong to.

Legend:
PI3K alpha (p110 alpha) = target: T1, PI3K alpha (p110 alpha) (Homo sapiens, UniProt P42336); test: PI3K p110α (alpha) binding assay (Example 901); conditions: for IC50: read-out: IC50, inhibition of PI3K alpha (binding to p110 alpha)
T1 construct: purchased Upstate Cell Signaling Solutions, Charlottesville, Va
T1 sequence (P42336 whole entry): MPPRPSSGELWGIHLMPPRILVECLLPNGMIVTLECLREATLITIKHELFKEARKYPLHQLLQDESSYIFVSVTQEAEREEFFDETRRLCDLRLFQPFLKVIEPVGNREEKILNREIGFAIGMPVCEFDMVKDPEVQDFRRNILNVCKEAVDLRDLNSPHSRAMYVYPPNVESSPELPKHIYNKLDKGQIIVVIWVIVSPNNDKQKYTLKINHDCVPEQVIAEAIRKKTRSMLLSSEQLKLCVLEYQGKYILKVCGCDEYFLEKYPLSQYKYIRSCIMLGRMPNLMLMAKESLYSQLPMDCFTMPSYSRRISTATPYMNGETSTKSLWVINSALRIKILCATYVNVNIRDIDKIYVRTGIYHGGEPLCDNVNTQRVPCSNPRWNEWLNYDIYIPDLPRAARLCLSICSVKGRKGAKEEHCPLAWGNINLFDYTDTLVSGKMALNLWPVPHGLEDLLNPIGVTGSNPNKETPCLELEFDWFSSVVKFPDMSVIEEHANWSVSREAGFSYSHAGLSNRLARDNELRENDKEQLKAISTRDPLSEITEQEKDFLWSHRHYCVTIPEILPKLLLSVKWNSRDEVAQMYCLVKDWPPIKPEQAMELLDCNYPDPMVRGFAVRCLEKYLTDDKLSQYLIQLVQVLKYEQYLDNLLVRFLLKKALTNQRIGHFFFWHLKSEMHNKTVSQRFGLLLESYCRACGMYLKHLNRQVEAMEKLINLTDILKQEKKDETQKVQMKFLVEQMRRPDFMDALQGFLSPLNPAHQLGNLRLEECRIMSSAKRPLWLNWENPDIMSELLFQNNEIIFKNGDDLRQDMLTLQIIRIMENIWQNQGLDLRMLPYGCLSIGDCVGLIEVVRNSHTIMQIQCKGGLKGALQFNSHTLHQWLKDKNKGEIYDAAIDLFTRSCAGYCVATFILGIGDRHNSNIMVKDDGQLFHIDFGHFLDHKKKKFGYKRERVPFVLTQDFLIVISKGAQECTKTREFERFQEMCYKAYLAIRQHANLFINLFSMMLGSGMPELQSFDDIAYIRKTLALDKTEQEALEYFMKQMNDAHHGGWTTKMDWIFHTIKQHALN
T1 sequence (P27986 whole entry partner): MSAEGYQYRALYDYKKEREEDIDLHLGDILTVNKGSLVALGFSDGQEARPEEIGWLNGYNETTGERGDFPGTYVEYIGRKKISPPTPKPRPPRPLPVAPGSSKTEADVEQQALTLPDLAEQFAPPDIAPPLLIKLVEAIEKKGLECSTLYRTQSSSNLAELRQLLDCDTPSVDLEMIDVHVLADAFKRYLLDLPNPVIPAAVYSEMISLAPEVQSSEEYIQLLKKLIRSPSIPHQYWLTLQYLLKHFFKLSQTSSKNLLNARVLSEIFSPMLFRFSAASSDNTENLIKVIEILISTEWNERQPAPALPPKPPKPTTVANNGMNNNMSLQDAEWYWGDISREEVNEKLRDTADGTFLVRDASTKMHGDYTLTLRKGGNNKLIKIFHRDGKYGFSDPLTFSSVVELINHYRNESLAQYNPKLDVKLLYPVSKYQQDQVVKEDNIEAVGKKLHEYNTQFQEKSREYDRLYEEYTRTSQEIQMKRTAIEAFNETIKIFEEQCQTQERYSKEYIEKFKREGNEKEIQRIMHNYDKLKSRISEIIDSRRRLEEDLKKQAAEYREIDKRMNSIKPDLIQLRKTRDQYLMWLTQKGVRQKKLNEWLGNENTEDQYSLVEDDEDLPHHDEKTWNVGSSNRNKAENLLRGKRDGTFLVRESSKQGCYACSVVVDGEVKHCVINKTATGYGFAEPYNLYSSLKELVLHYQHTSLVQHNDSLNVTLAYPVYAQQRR
From the text: Determination of the PI3 kinase activity of a Formula I compound is possible by a number of direct and indirect detection methods.

AU565 = test: CellTiter-Glo cell proliferation assay, AU565; type: cell-based; conditions: Homo sapiens, Breast, mutation status WT
Description: (§1) Efficacy of Formula I compounds was measured by a cell proliferation assay employing the following protocol (Promega Corp. Technical Bulletin TB288; Mendoza et al (2002) Cancer Res. 62:5485-5488):
(§2) 1. An aliquot of 100 μl of cell culture containing about 104 cells (PC3, Detroit562, or MDAMB361.1) in medium was deposited in each well of a 384-well, opaque-walled plate.
(§3) 2. Control wells were prepared containing medium and without cells.
(§4) 3. The compound was added to the experimental wells and incubated for 3-5 days.
(§5) 4. The plates were equilibrated to room temperature for approximately 30 minutes.
(§6) 5. A volume of CellTiter-Glo Reagent equal to the volume of cell culture medium present in each well was added.
(§7) 6. The contents were mixed for 2 minutes on an orbital shaker to induce cell lysis.
(§8) 7. The plate was incubated at room temperature for 10 minutes to stabilize the luminescence signal.
(§9) 8. Luminescence was recorded and reported in graphs as RLU=relative luminescence units.
(§10) Alternatively, cells were seeded at optimal density in a 96 well plate and incubated for 4 days in the presence of test compound. Alamar Blue™ was subsequently added to the assay medium, and cells were incubated for 6 hr before reading at 544 nm excitation, 590 nm emission. EC50 values were calculated using a sigmoidal dose response curve fit. The term EC50 refers to the half maximal effective concentration and is the concentration at which a drug induces a response halfway between the baseline and maximum after some specified exposure time. It is commonly used as a measure of drug potency.
(§11) The anti-proliferative effects of Formula I exemplary compounds were measured by the CellTiter-Glo® Assay against various tumor cell lines, including the following: […]

BT474 = test: CellTiter-Glo cell proliferation assay, BT474; type: cell-based; conditions: Homo sapiens, BT-474, Breast, mutation status PI3K(amped)
Description: as §1, §2, §3, §4, §5, §6, §7, §8, §9, §10, §11

EVSA-T = test: CellTiter-Glo cell proliferation assay, EVSA-T; type: cell-based; conditions: Homo sapiens, Breast, mutation status PTEN
Description: as §1, §2, §3, §4, §5, §6, §7, §8, §9, §10, §11

HCC1954 = test: CellTiter-Glo cell proliferation assay, HCC1954; type: cell-based; conditions: Homo sapiens, Breast, mutation status PI3K
Description: as §1, §2, §3, §4, §5, §6, §7, §8, §9, §10, §11

KPL4 = test: CellTiter-Glo cell proliferation assay, KPL4; type: cell-based; conditions: Breast, mutation status PI3K
Description: as §1, §2, §3, §4, §5, §6, §7, §8, §9, §10, §11

MDA-MB-361.1 = test: CellTiter-Glo cell proliferation assay, MDA-MB-361.1; type: cell-based; conditions: Breast, mutation status PI3K
Description: as §1, §2, §3, §4, §5, §6, §7, §8, §9, §10, §11

MFM223 = test: CellTiter-Glo cell proliferation assay, MFM223; type: cell-based; conditions: Homo sapiens, MFM-223, Breast, mutation status PI3K
Description: as §1, §2, §3, §4, §5, §6, §7, §8, §9, §10, §11

SKBR3 = test: CellTiter-Glo cell proliferation assay, SKBR3; type: cell-based; conditions: Homo sapiens, SK-BR-3, Breast, mutation status WT
Description: as §1, §2, §3, §4, §5, §6
6. […]
as §8, §9
(§12) Alternatively, cells were seeded at optimal density in a 96 well plate and incubated for 4 days in the presence of test compound. Alamar Blue™ was subsequently added to the assay medium, and cells were incubated for 6 hr before reading at 544 nm excitation, 590 nm emission. EC50 values were calculated using a sigmoidal dose response curve fit. […]
as §11

T47D = test: CellTiter-Glo cell proliferation assay, T47D; type: cell-based; conditions: Homo sapiens, Breast, mutation status PI3K
Description: as §1, §2, §3, §4, §5, §6, §7, §8, §9, §10, §11

H2122 = test: CellTiter-Glo cell proliferation assay, H2122; type: cell-based; conditions: Homo sapiens, NCI-H2122, Lung(NSCLC), mutation status K-RAS
Description: as §1, §2, §3, §4, §5, §6, §7, §8, §9, §10, §11

PC3 = test: CellTiter-Glo cell proliferation assay, PC3; type: cell-based; conditions: Homo sapiens, PC-3, Prostate, mutation status PTEN
Description: as §1, §2, §3, §4, §5, §6, §7, §8, §9, §10, §11

A375 = test: CellTiter-Glo cell proliferation assay, A375; type: cell-based; conditions: Homo sapiens, A-375, Melanoma, mutation status B-Raf
Description: as §1, §2, §3, §4, §5, §6
6. […]
as §8, §9, §12, §11

KM12 = test: CellTiter-Glo cell proliferation assay, KM12; type: cell-based; conditions: Homo sapiens, Colon, mutation status PTEN
Description: as §1, §2, §3, §4, §5, §6
6. […]
as §8, §9, §12, §11

MDST8 = test: CellTiter-Glo cell proliferation assay, MDST8; type: cell-based; conditions: Colon, mutation status PTEN
Description: as §1, §2, §3, §4, §5, §6
6. […]
as §8, §9, §12, §11

U87MG = test: CellTiter-Glo cell proliferation assay, U87MG; type: cell-based; conditions: Homo sapiens, U-87 MG, Glioma, mutation status PTEN
Description: as §1, §2, §3, §4, §5, §6
6. […]
as §8, §9, §12, §11

H520 = test: CellTiter-Glo cell proliferation assay, H520; type: cell-based; conditions: Homo sapiens, NCI-H520, Lung(NSCLC), mutation status PTEN
Description: as §1, §2, §3, §4, §5, §6
6. […]
as §8, §9, §12, §11

SMILES: Cc1nc(-c2cn3c(n2)-c2ccc(-c4cnn(C(C)(C)C(=O)O)c4)cc2OCC3)n(C(C)C)n1 [compound 251, 2-(4-(2-(1-isopropyl-3-methyl-1H-1,2,4-triazol-5-yl)-5,6-dihydrobenzo[f]imidazo[1,2-d][1,4]oxazepin-9-yl)-1H-pyrazol-1-yl)-2-methylpropanoic acid]
IC50 (PI3K alpha (p110 alpha)): 1.4 nM

SMILES: Cc1nc(-c2cn3c(n2)-c2ccc(-c4cnn(CCO)c4)cc2OCC3)n(C(C)C)n1 [compound 186, 2-(4-(2-(1-isopropyl-3-methyl-1H-1,2,4-triazol-5-yl)-5,6-dihydrobenzo[f]imidazo[1,2-d][1,4]oxazepin-9-yl)-1H-pyrazol-1-yl)ethanol]
EC50 (AU565): 470 nM
EC50 (BT474): 324 nM
EC50 (EVSA-T): 2000 nM
EC50 (HCC1954): 420 nM
EC50 (KPL4): 88 nM
EC50 (MDA-MB-361.1): 710 nM
EC50 (MFM223): 1100 nM
EC50 (SKBR3): 860 nM
EC50 (T47D): 133 nM
EC50 (H2122): 2950 nM
EC50 (PC3): 1300 nM

SMILES: CC(C)NC(=O)CN1CC(c2ccc3c(c2)OCCn2cc(-c4ncnn4C(C)C)nc2-3)C1 [compound 200, N-isopropyl-2-(3-(2-(1-isopropyl-1H-1,2,4-triazol-5-yl)-5,6-dihydrobenzo[f]imidazo[1,2-d][1,4]oxazepin-9-yl)azetidin-1-yl)acetamide]
IC50 (PI3K alpha (p110 alpha)): 2 nM

SMILES: Cc1nc(-c2cn3c(n2)-c2ccc(-c4cnn(C(C)(C)C(N)=O)c4)cc2OCC3)n(C(C)C)n1 [compound 196, 2-(4-(2-(1-isopropyl-3-methyl-1H-1,2,4-triazol-5-yl)-5,6-dihydrobenzo[f]imidazo[1,2-d][1,4]oxazepin-9-yl)-1H-pyrazol-1-yl)-2-methylpropanamide]
EC50 (AU565): 152 nM
EC50 (BT474): 86 nM
EC50 (HCC1954): 128 nM
EC50 (KPL4): 16 nM
EC50 (MDA-MB-361.1): 178 nM
EC50 (T47D): 45 nM
EC50 (A375): 10000 nM

SMILES: CC(C)n1ncnc1-c1cn2c(n1)-c1cnc(N3CCC[C@H]3C(N)=O)cc1OCC2 [compound 338, (2S)-1-(2-(1-isopropyl-1H-1,2,4-triazol-5-yl)-5,6-dihydroimidazo[1,2-d]pyrido[3,4-f][1,4]oxazepin-9-yl)pyrrolidine-2-carboxamide]
IC50 (PI3K alpha (p110 alpha)): 0.32 nM

SMILES: CNC(=O)C(C)(C)N1CCC(c2ccc3c(c2)OCCn2cc(-c4ncnn4C(C)C)nc2-3)CC1 [compound 248, 2-(4-(2-(1-isopropyl-1H-1,2,4-triazol-5-yl)-5,6-dihydrobenzo[f]imidazo[1,2-d][1,4]oxazepin-9-yl)piperidin-1-yl)-N,2-dimethylpropanamide]
IC50 (PI3K alpha (p110 alpha)): 0.37 nM

SMILES: Cc1nc(-c2cn3c(n2)-c2ccc(OC4COC4)cc2OCC3)n(C(C)C)n1 [compound 520, 2-(1-isopropyl-3-methyl-1H-1,2,4-triazol-5-yl)-9-(oxetan-3-yloxy)-5,6-dihydrobenzo[f]imidazo[1,2-d][1,4]oxazepine]
Ki (PI3K alpha (p110 alpha); read-out: Ki, inhibition of PI3K alpha (binding to p110 alpha)): 2.1 nM

SMILES: CC(C)n1ncnc1-c1cc2n(n1)-c1cc(C3CN(C(C)(C)CO)C3)ccc1OCC2 [compound 170, 2-(3-(2-(1-isopropyl-1H-1,2,4-triazol-5-yl)-4,5-dihydrobenzo[b]pyrazolo[1,5-d][1,4]oxazepin-9-yl)azetidin-1-yl)-2-methylpropan-1-ol]
IC50 (PI3K alpha (p110 alpha)): 22 nM

More lines, main results first:

IC50 (PI3K alpha (p110 alpha)): 4.4 nM
SMILES: CC(C)n1nc(N)nc1-c1cn2c(n1)-c1ccc(F)cc1OCC2 [compound 253, 5-(9-fluoro-5,6-dihydrobenzo[f]imidazo[1,2-d][1,4]oxazepin-2-yl)-1-isopropyl-1H-1,2,4-triazol-3-amine]

IC50 (PI3K alpha (p110 alpha)): 0.66 nM
SMILES: CS(=O)(=O)CCN1CC(c2ccc3c(c2)OCCc2cn(-c4ncnn4-c4ccc(F)cc4F)nc2-3)C1 [compound 171, 2-(1-(2,4-difluorophenyl)-1H-1,2,4-triazol-5-yl)-8-(1-(2-(methylsulfonyl)ethyl)azetidin-3-yl)-4,5-dihydrobenzo-2H-oxepino[4,5-d]pyrazole]

IC50 (PI3K alpha (p110 alpha)): 58 nM
SMILES: Fc1ccc(-n2ncnc2-n2cc3c(n2)-c2ccc(Br)cc2OCC3)c(F)c1 [compound 103, 2-(1-(2,4-difluorophenyl)-1H-1,2,4-triazol-5-yl)-8-bromo-4,5-dihydrobenzo-2H-oxepino[4,5-d]pyrazole]

IC50 (PI3K alpha (p110 alpha)): 0.91 nM
SMILES: Clc1ccccc1-n1ncnc1-n1cc2c(n1)-c1cc(C3CCNCC3)ccc1OCC2 [compound 154, 2-(1-(2-chlorophenyl)-1H-1,2,4-triazol-5-yl)-9-piperid-4-yl-4,5-dihydrobenzo-2H-oxepino[4,5-d]pyrazole]

EC50 (MDA-MB-361.1): 1050 nM
EC50 (PC3): 999 nM
SMILES: NC(=O)c1ccc2c(c1)OCCc1cn(-c3ncnn3-c3ccc(F)cc3F)nc1-2 [compound 107, 2-(1-(2,4-difluorophenyl)-1H-1,2,4-triazol-5-yl)-4,5-dihydrobenzo-2H-oxepino[4,5-d]pyrazole-8-carboxamide]
EC50 (AU565): 259 nM
EC50 (EVSA-T): 1410 nM

IC50 (PI3K alpha (p110 alpha)): 3 nM
SMILES: NC(=O)c1ccc2c(c1)-c1nc(-c3ncnn3-c3ccccc3Cl)cn1CCO2 [compound 102, 2-(1-(2-chlorophenyl)-1H-1,2,4-triazol-5-yl)-5,6-dihydrobenzo[f]imidazo[1,2-d][1,4]oxazepine-10-carboxamide]

IC50 (PI3K alpha (p110 alpha)): 770 nM
SMILES: CN(C(=O)c1cc2n(n1)-c1ccccc1OCC2)c1ccc(F)cc1F [compound 101, N-(2,4-difluorophenyl)-N-methyl-4,5-dihydrobenzo[b]pyrazolo[1,5-d][1,4]oxazepine-2-carboxamide]

EC50 (BT474): 1680 nM
EC50 (HCC1954): 3390 nM
EC50 (MDA-MB-361.1): ≥ 10000 nM
EC50 (T47D): 762 nM
EC50 (U87MG): 5770 nM
EC50 (H2122): ≥ 10000 nM
EC50 (H520): 1290 nM
EC50 (PC3): 762 nM
SMILES: CC(C)n1ncnc1-c1cn2c(n1)-c1ccc(-c3cn(CCO)cn3)cc1OCC2 [compound 207, 2-(4-(2-(1-isopropyl-1H-1,2,4-triazol-5-yl)-5,6-dihydrobenzo[f]imidazo[1,2-d][1,4]oxazepin-9-yl)-1H-imidazol-1-yl)ethanol]
EC50 (AU565): 3730 nM
EC50 (EVSA-T): 1770 nM
EC50 (KPL4): 1360 nM
EC50 (MFM223): 7250 nM
EC50 (KM12): ≥ 10000 nM
EC50 (MDST8): 7790 nM
